Test results taken from patent US11447486B2, “2-amino-benzimidazole derivatives and their use as 5-lipoxygenase and/or prostaglandin E synthase inhibitors” (INSTITUT PASTEUR KOREA, priority 2014, dated 2022).
Like-named read-outs stand apart in the source and are kept apart here.

Key:
[1] = system: Rat basophilic leukemia (RBL) cells; assay: LTB4 secretion assay in RBL (rat basophilic leukemia cells); assay type: cell-based
In short: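 LTB4 released into supernatant was measured by EIA after 10 min at 37 °C with arachidonic acid (2.5 uM final) and calcium ionophore A23187 (5 uM final). Before stimulation, cells plated 2×10^4/well overnight received compound doses (5 nM to 100 uM) for 15 min in 0.5% FBS medium.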

[2] = molecular target: T1, human 5-LOX (Homo sapiens, UniProt P09917); assay: 5-LOX enzyme activity, fluorescence method (5-HPETE, H2DCFDA); assay type: biochemical; conditions: read-out: 5-LO (IC50)
T1 construct: purchased Cayman 60402; host or cells: insect cells (lysate)
T1 sequence (P09917 1-674): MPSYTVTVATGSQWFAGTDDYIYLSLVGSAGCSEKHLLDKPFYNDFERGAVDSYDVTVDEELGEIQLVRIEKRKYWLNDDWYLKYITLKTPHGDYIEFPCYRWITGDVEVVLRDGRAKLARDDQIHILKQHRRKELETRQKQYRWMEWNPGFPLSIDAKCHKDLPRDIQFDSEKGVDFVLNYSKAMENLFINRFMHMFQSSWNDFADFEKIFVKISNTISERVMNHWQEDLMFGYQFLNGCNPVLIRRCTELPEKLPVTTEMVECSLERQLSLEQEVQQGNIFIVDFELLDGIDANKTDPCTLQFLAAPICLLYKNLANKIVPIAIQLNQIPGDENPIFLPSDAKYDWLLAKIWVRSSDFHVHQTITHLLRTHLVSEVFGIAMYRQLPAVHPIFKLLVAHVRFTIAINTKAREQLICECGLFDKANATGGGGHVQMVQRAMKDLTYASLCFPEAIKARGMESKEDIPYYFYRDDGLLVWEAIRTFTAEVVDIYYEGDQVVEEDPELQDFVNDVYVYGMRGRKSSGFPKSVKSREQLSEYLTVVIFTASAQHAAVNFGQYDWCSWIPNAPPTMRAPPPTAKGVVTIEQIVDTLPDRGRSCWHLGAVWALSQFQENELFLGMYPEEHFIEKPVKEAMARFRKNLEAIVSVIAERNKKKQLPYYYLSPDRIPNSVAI
In short: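 Fluorescence-based read-out, run entirely at room temperature. Enzyme mixture was exposed to a dose range of compound from 0.5 nM to 10 uM for 5 min before ATP and arachidonic acid were added to final levels of 100 uM and 3 uM.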

[3] = system: Rat whole blood (RWB); assay: LTB4 secretion assay in RWB (rat whole blood); assay type: cell-based
Method: Rat blood was drawn from caudal vena cava from male Sprague Dawley rat (6-9 weeks old) in vacuette coated with sodium heparin (Greiner bio-one, Cat #455051). The blood was pooled and diluted with RPMI (WelGENE, Cat #LM 011-05) to 1:1. The diluted blood was aliquoted into 96 well plate (200 ul per well) and compounds were added in dose response to a desired concentration ranging from 2.5 nM to 50 uM. After 15 min of pre-incubation at 37° C., calcium ionophore (A23187) was added to the final concentration of 10 uM. After 10 min of further incubation at 37° C., the LTB4 production was stopped by diluting the reaction mixture with ice cold PBS (1:4 dilutions). Cells were removed by centrifugation at 1000×g, 4° C. for 10 min, and the supernatant was transferred and then the quantification of LTB4 was done with Leukotriene B4 EIA kit (Cayman, Cat #520111) as instructed.

Structure (SMILES) | EC50 ([1]; Rattus norvegicus, RBL) [µM] | IC50 [2] [µM] | EC50 ([3]; Rattus norvegicus) [µM] | EC50 [1] [µM] | EC50 [3] [µM]
Cn1c(NCc2ccc(Oc3ncc(Cl)cn3)cc2)nc2ccc(Nc3nc(C(F)(F)F)co3)cc21 [Compound 493] | < 10 | 1 to 10 | < 10 |  | 
Cc1cc(Nc2cnc3nc(NCc4ccc(Oc5ncc(Cl)cn5)cc4)n(C)c3c2)n[nH]1 [Compound 497] | > 20 | 1 to 10 | > 20 |  | 
CCn1c(NCc2ccc(Oc3ncc(C(F)(F)F)cn3)cc2)nc2ccc(Nc3n[nH]c(C)c3Cl)cc21 [Compound 508] | < 10 | 1 to 10 | < 10 |  | 
CCn1c(NCc2ccc(Oc3ncc(Cl)cn3)cc2)nc2ccc(Nc3cc(C(C)(C)C)[nH]n3)cc21 [Compound 509] | < 10 | < 1 | < 10 |  | 
CCC(Nc1nc2ccc(Nc3cc(C)[nH]n3)cc2n1C)c1ccc(Oc2ncc(C(F)(F)F)cn2)cc1F (centres unmarked) [Compound 541] | < 10 | < 1 | < 10 |  | 
Cn1nc(Nc2ccc3nc(NCc4ccc(Oc5ncc(Cl)cn5)cc4F)n(C)c3c2)cc1C(F)(F)F [Compound 503] | < 10 | < 1 | < 10 |  | 
COc1nc(Oc2ccc(CNc3nc4ccc(NC5COC5)cc4n3C)cc2)ncc1Cl [Compound 459] | 10 to 20 | < 1 | 10 to 20 |  | 
CN(C)c1nc2ccc(N3CCC(C(=O)c4ccc(OC(F)(F)F)cc4)C3)cc2[nH]1 (centres unmarked) [Compound 190] | < 10 | < 1 | > 20 |  | 
CCn1c(NCc2ccc(Oc3ncc(C(F)(F)F)cn3)cc2)nc2ccc(Nc3cc(C(C)(C)C)[nH]n3)cc21 [Compound 513] |  | < 1 |  | < 10 | < 10
Cn1c(NCc2ccc(Oc3nc4ccc(N)cc4n3C)cc2)nc2ccc(NC3COC3)cc21 [Compound 409] | > 20 | < 1 | > 20 |  | 
Clc1ccc(Oc2ccc(CNc3nc4cc(NC5COC5)ccc4[nH]3)cc2)nc1 [Compound 166] | < 10 | < 1 | < 10 |  | 
Nc1ccc2nc(N3CCCC3)n(CCOc3ccc(OC(F)(F)F)cc3)c2c1 [Compound 51] | < 10 | < 1 | 10 to 20 |  | 
c1ccc(Oc2ccc(CNc3nc4cc(NC5COC5)ccc4[nH]3)cc2)cc1 [Compound 87] | < 10 | < 1 | < 10 |  | 
Cn1nc(Nc2ccc3nc(NCc4ccc(Oc5ccc(Cl)cn5)cc4)n(C)c3c2)cc1C(F)(F)F [Compound 502] | < 10 | 1 to 10 | < 10 |  | 
Nc1ccc2[nH]c(NCCc3ccc(F)cc3)nc2c1 [Compound 32] | < 10 | < 1 | < 10 |  | 
CN(C)c1nc2ccc(NCc3ccc(-c4ccc(Cl)cn4)cc3)cc2[nH]1 [Compound 197] | < 10 | < 1 | > 20 |  | 

Structure (SMILES) | EC50 ([1]; Rattus norvegicus, RBL) [µM] | IC50 [2] [µM] | EC50 ([3]; Rattus norvegicus) [µM] | EC50 [1] [µM] | EC50 [3] [µM]
CN(C)c1nc2ccc(N3CCC(Oc4ccc(OC(F)(F)F)cc4)C3)cc2[nH]1 (centres unmarked) [Compound 105] | < 10 | < 1 | > 20 |  | 
CCn1c(NCc2ccc(Oc3ncc(C(F)(F)F)cn3)cc2F)nc2ccc(Nc3cc(C)[nH]n3)cc21 [Compound 540] | < 10 | < 1 | < 10 |  | 
Cc1cc(Nc2ccc3nc(NCc4ccc(Oc5ccc(C(F)(F)F)cn5)cc4)n(C)c3c2)n[nH]1 [Compound 495] | < 10 | < 1 | < 10 |  | 
Nc1ccc2[nH]c(NCc3ccc(Oc4ccc(F)c(F)c4)cc3)nc2c1 [Compound 113] | < 10 | < 1 | < 10 |  | 
Cn1c(NCc2ccc(Oc3ncc(F)cn3)cc2)nc2ccc(N)cc21 [Compound 336] | 10 to 20 | < 1 | < 10 |  | 
CC(Nc1nc2cc(N)ccc2[nH]1)c1ccc(Cl)cc1Cl (centres unmarked) [Compound 74] | < 10 | < 1 | 10 to 20 |  | 
Cc1cc(Nc2cc(F)c3nc(NCc4ccc(Oc5ncc(Cl)cn5)cc4)n(C)c3c2)n[nH]1 [Compound 499] | < 10 | < 1 | < 10 |  | 
Nc1ccc2nc(N)n(Cc3ccc(Oc4ccc(Cl)cc4)cn3)c2c1 [Compound 239] | < 10 | < 1 | < 10 |  | 
Cn1c(NCc2ccc(Oc3ccc(C(F)(F)F)cn3)cc2F)nc2ccc(NC3COC3)cc21 [Compound 546] | < 10 | < 1 | < 10 |  | 
Cn1nc(C(F)(F)F)cc1Nc1ccc2nc(NCc3ccc(Oc4ncc(Cl)cn4)cc3)n(C)c2c1 [Compound 526] | < 10 | 1 to 10 | < 10 |  | 
Cc1cc(Nc2ccc3nc(NCc4ccc(Oc5ncc(C(F)(F)F)cn5)cc4)n(C)c3c2)n[nH]1 [Compound 479] | < 10 | < 1 | < 10 |  | 
Cn1nc(Nc2ccc3nc(NCc4ccc(Oc5ncc(C(F)(F)F)cn5)cc4)n(C)c3c2)cc1C(F)(F)F [Compound 519] | < 10 | > 10 | < 10 |  | 
Cn1c(NCc2ccc(Oc3ncc(C#N)cn3)cc2)nc2ccc(N)cc21 [Compound 367] | < 10 | < 1 | < 10 |  | 
CCn1c(NCc2ccc(Oc3ncc(C(F)(F)F)cn3)cc2F)nc2ccc(NC3COC3)cc21 [Compound 542] | < 10 | < 1 | < 10 |  | 
Nc1ccc2[nH]c(NCc3ccc(N4CCC(OCc5ccc(Cl)cc5)CC4)cc3)nc2c1 [Compound 6] |  | < 1 | > 20 |  | 

Further lines, results first:

EC50 ([1]; Rattus norvegicus, RBL) [µM] | IC50 [2] [µM] | EC50 ([3]; Rattus norvegicus) [µM] | EC50 [1] [µM] | EC50 [3] [µM] | Structure (SMILES)
> 20 | < 1 | 10 to 20 |  |  | Cn1c(NCc2ccc(Oc3ncccn3)cc2)nc2ccc(N)cc21 [Compound 344]
< 10 | < 1 | < 10 |  |  | CCC(Nc1nc2ccc(Nc3cc(C)[nH]n3)cc2n1C)c1ccc(Oc2ncc(Cl)cn2)cc1F (centres unmarked) [Compound 537]
< 10 | < 1 | < 10 |  |  | Cn1c(NCc2ccc(Oc3ncc(C(F)(F)F)cn3)cc2)nc2ccc(N)cc21 [Compound 373]
< 10 | < 1 | < 10 |  |  | Cc1cc(Nc2ccc3nc(NCc4ccc(Oc5ncc(Cl)cn5)c(Cl)c4)n(C)c3c2)n[nH]1 [Compound 473]
< 10 | < 1 | > 20 |  |  | CCC(Nc1ccc2[nH]c(N(C)C)nc2c1)c1ccc(Oc2ccc(OC(F)(F)F)cc2)cc1 (centres unmarked) [Compound 132]
< 10 | < 1 | < 10 |  |  | CC(C)(Nc1ccc2[nH]c(NCc3ccc(Oc4ccc(Cl)cn4)cc3)nc2c1)C(N)=O [Compound 177]
< 10 | < 1 | 10 to 20 |  |  | Cn1c(NCCOc2ccc(OC(F)(F)F)cc2Cl)nc2ccc(N)cc21 [Compound 56]
< 10 | < 1 | < 10 |  |  | Nc1ccc2nc(NCCO)n(Cc3ccc(Oc4ccc(Cl)cc4)cc3)c2c1 [Compound 155]
< 10 | < 1 | < 10 |  |  | CCC(Nc1nc2ccc(Nc3cc(C(F)(F)F)n(C)n3)cc2n1C)c1ccc(Oc2ncc(Cl)cn2)cc1 (centres unmarked) [Compound 505]
< 10 | < 1 | > 20 |  |  | Cn1c(NCc2ccc(Oc3ccc4cc(F)ccc4n3)cc2)nc2ccc(NC3COC3)cc21 [Compound 383]
< 10 | < 1 | > 20 |  |  | CC(C)(C)Nc1ccc2nc(N)n(CCOc3ccc(OC(F)(F)F)cc3)c2c1 [Compound 93]
10 to 20 | < 1 | 10 to 20 |  |  | CCn1c(NCc2ccc(Oc3ncc(Cl)cn3)cc2)nc2c(F)cc(NC3COC3)cc21 [Compound 555]
< 10 | < 1 | < 10 |  |  | Cn1c(NCc2ccc(Oc3ncc(C(F)(F)F)cn3)cc2)nc2ccc(NC3COC3)cc21 [Compound 374]
10 to 20 | < 1 | < 10 |  |  | Cn1c(NCc2ccc(Oc3ncc(Cl)cn3)cc2)nc2c(F)cc(NC3COC3)cc21 [Compound 554]
